In patent US20020137929A1, “1 - (3-heterocyclylphenyl) isothiourea, -isourea, -guanidine and -amidine herbicidal agents” (Intellectual Property Department, BASF Aktiengesellschaft, priority 1998, published 2002):

Legend:
ORYSAT (Rice, Tebonnet) = assay: Preemergence herbicidal evaluation; assay type: in vivo, Oryza sativa, (L.) Tebonnet; details: rated 4-5 weeks after treatment; for ORYSAT rating: preemergence, 0-9 scale
Outline: (§1)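 Preemergence soil application of compound, sprayed in aqueous acetone at rates equivalent to about 0.0156 to 0.500 kg per hectare onto freshly sown cups. Plant response was judged by eye on a 0-9 scale four to five weeks later.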

CASOB (Sicklepod) = assay: Postemergence herbicidal evaluation; assay type: in vivo, Cassia obtusifolia; details: for CASOB herbicidal rating: postemergence
Outline: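 ~2-wk seedlings; postemergence spray, 40 psi; vehicle 1:1 acetone:water + 0.5% Tween 20; rate ≈0.0156–0.500 kg/ha; greenhouse hold; scored 4–5 wk after treatment, 0–9 scale vs control; repeat tests averaged.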

[1] = system: SAGPY (Arrowhead (Pygmaea)); assay: Preemergence weed control under flooded paddy conditions; assay type: in vivo, Sagittaria pygmaea; details: rated 3-4 weeks after treatment
Outline: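 Herbicidal effect is scored visually on a 0-9 scale against an untreated control, three to four weeks after compounds are pipetted into the flood water (1.5 to 3 cm deep) over seeds planted in silt loam at 0.5 cm depth. Rates: about 0.0313 to 0.500 kg/ha.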

MOOVA (Monochoria) = assay: Postemergence weed control under flooded paddy conditions; assay type: in vivo, Monochoria vaginalis; details: postemergence weeds
Outline: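 Containers holding 3–5 cm weeds and rice at 1.5–2.5 leaves are flooded to 1.5–3 cm above soil. Compound in 50/50 v/v aqueous/acetone is then added directly to the water, about 0.0313–0.500 kg/ha. Plants are kept in the greenhouse and rated 0–9 visually at 3–4 weeks.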

[2] = system: GLXMAW (Soybean, Williams); assay: Preemergence herbicidal evaluation; assay type: in vivo, Glycine max, (L.) Merr. cv Williams; details: rated 4-5 weeks after treatment; for GLXMAW rating: preemergence, 0-9 scale
Outline: as §1

[3] = system: TRZAWR (Wheat, Winter, cv Riband); assay: Preemergence herbicidal evaluation; assay type: in vivo, Triticum aestivum; details: rated 4-5 weeks after treatment; for TRZAWR rating: preemergence, 0-9 scale
Outline: as §1

[4] = Rate 0.0313 kg/ha, rated 3 to 4 weeks after treatment
[5] = Rate 0.0625 kg/ha, rated 3 to 4 weeks after treatment
[6] = Rate 0.1250 kg/ha, rated 3 to 4 weeks after treatment
[7] = Rate 0.2500 kg/ha, rated 3 to 4 weeks after treatment

`COC(=O)CC1SC(=Nc2cc(-n3c(=O)cc(C(F)(F)F)n(C)c3=O)c(F)cc2Cl)N(C)C1=O` (centres unmarked) [Compound 88, Methyl 2-{{2-chloro-5-[3,6-dihydro-3-methyl-2,6-dioxo-4-(trifluoromethyl)-1(2H)-pyrimidinyl]-4-fluorophenyl}imino}-3-methyl-4-oxo-5-thiazolidineacetate] was tested. Which ORYSAT rating (ORYSAT (Rice, Tebonnet); 0.0156 kg/ha) did it give?
The ORYSAT rating was 0.0.

What about the ORYSAT rating (ORYSAT (Rice, Tebonnet); 0.0313 kg/ha) of the same compound?
Its ORYSAT rating is 0.0.

And the ORYSAT rating (ORYSAT (Rice, Tebonnet); 0.0625 kg/ha)?
Its ORYSAT rating is 0.0.

And the ORYSAT rating (ORYSAT (Rice, Tebonnet); 0.1250 kg/ha)?
Its ORYSAT rating is 2.0.

What about the ORYSAT rating (ORYSAT (Rice, Tebonnet); 0.2500 kg/ha) of the same compound?
Its ORYSAT rating is 7.0.

And the CASOB herbicidal rating (CASOB (Sicklepod); rate 0.0158 kg/ha)?
Its CASOB herbicidal rating is 0.0.

And the CASOB herbicidal rating (CASOB (Sicklepod); rate 0.0315 kg/ha)?
The CASOB herbicidal rating was 3.0.

What about the CASOB herbicidal rating (CASOB (Sicklepod); rate 0.0630 kg/ha) of the same compound?
The CASOB herbicidal rating was 3.0.

What about the “SAGPY herbicidal effect rating” value ([1]; 0.0313 kg/ha) of the same compound?
Its value is 6.0.

What about the “SAGPY herbicidal effect rating” value ([1]; 0.0625 kg/ha) of the same compound?
Its value is 9.0.

What about the “SAGPY herbicidal effect rating” value ([1]; 0.1250 kg/ha) of the same compound?
Its value is 9.0.

And the “SAGPY herbicidal effect rating” value ([1]; 0.2500 kg/ha)?
Its value is 9.0.

And the “Herbicidal rating MOOVA” value (MOOVA (Monochoria); [4])?
The value was 9.0.

What about the “Herbicidal rating MOOVA” value (MOOVA (Monochoria); [5]) of the same compound?
The value was 9.0.

And the “Herbicidal rating MOOVA” value (MOOVA (Monochoria); [6])?
Its value is 9.0.

And the “Herbicidal rating MOOVA” value (MOOVA (Monochoria); [7])?
Its value is 9.0.

What about the GLXMAW rating ([2]; 0.0156 kg/ha) of the same compound?
The GLXMAW rating was 0.0.

And the GLXMAW rating ([2]; 0.0313 kg/ha)?
Its GLXMAW rating is 0.0.

And the GLXMAW rating ([2]; 0.0625 kg/ha)?
The GLXMAW rating was 0.0.

What about the GLXMAW rating ([2]; 0.1250 kg/ha) of the same compound?
Its GLXMAW rating is 4.0.

What about the GLXMAW rating ([2]; 0.2500 kg/ha) of the same compound?
The GLXMAW rating was 9.0.

And the TRZAWR rating ([3]; 0.0156 kg/ha)?
Its TRZAWR rating is 0.0.

And the TRZAWR rating ([3]; 0.0313 kg/ha)?
The TRZAWR rating was 0.0.

What about the TRZAWR rating ([3]; 0.0625 kg/ha) of the same compound?
Its TRZAWR rating is 0.0.

And the TRZAWR rating ([3]; 0.1250 kg/ha)?
Its TRZAWR rating is 3.0.

And the TRZAWR rating ([3]; 0.2500 kg/ha)?
The TRZAWR rating was 9.0.

Which ORYSAT rating (ORYSAT (Rice, Tebonnet); 0.0156 kg/ha) does the source give for `CN1C(=O)C(CC(N)=O)SC1=Nc1cc(-n2c(=O)cc(C(F)(F)F)n(C)c2=O)c(F)cc1Cl` (centres unmarked) [Compound 92, 2-{{2-Chloro-5-[3,6-dihydro-3-methyl-2,6-dioxo-4-(trifluoromethyl)-1(2H)-pyrimidinyl]-4-fluorophenyl}imino}-3-methyl-4-oxo-5-thiazolidineacetamide] here?
The ORYSAT rating was 0.0.

And the ORYSAT rating (ORYSAT (Rice, Tebonnet); 0.0313 kg/ha)?
The ORYSAT rating was 0.0.

What about the ORYSAT rating (ORYSAT (Rice, Tebonnet); 0.0625 kg/ha) of the same compound?
Its ORYSAT rating is 0.0.

What about the ORYSAT rating (ORYSAT (Rice, Tebonnet); 0.1250 kg/ha) of the same compound?
Its ORYSAT rating is 0.0.

What about the ORYSAT rating (ORYSAT (Rice, Tebonnet); 0.2500 kg/ha) of the same compound?
Its ORYSAT rating is 5.0.

What about the CASOB herbicidal rating (CASOB (Sicklepod); rate 0.0158 kg/ha) of the same compound?
Its CASOB herbicidal rating is 3.0.

What about the CASOB herbicidal rating (CASOB (Sicklepod); rate 0.0315 kg/ha) of the same compound?
Its CASOB herbicidal rating is 5.0.

And the CASOB herbicidal rating (CASOB (Sicklepod); rate 0.0630 kg/ha)?
Its CASOB herbicidal rating is 9.0.

And the “SAGPY herbicidal effect rating” value ([1]; 0.0313 kg/ha)?
The value was 0.0.

What about the “SAGPY herbicidal effect rating” value ([1]; 0.0625 kg/ha) of the same compound?
Its value is 0.0.

And the “SAGPY herbicidal effect rating” value ([1]; 0.1250 kg/ha)?
The value was 4.0.

What about the “SAGPY herbicidal effect rating” value ([1]; 0.2500 kg/ha) of the same compound?
Its value is 9.0.

What about the “Herbicidal rating MOOVA” value (MOOVA (Monochoria); [4]) of the same compound?
The value was 9.0.

And the “Herbicidal rating MOOVA” value (MOOVA (Monochoria); [5])?
The value was 9.0.

What about the “Herbicidal rating MOOVA” value (MOOVA (Monochoria); [6]) of the same compound?
The value was 9.0.

What about the “Herbicidal rating MOOVA” value (MOOVA (Monochoria); [7]) of the same compound?
Its value is 9.0.

And the GLXMAW rating ([2]; 0.0156 kg/ha)?
Its GLXMAW rating is 0.0.

And the GLXMAW rating ([2]; 0.0313 kg/ha)?
Its GLXMAW rating is 0.0.

What about the GLXMAW rating ([2]; 0.0625 kg/ha) of the same compound?
The GLXMAW rating was 0.0.

And the GLXMAW rating ([2]; 0.1250 kg/ha)?
Its GLXMAW rating is 1.0.

What about the GLXMAW rating ([2]; 0.2500 kg/ha) of the same compound?
Its GLXMAW rating is 5.0.

What about the TRZAWR rating ([3]; 0.0156 kg/ha) of the same compound?
The TRZAWR rating was 0.0.

And the TRZAWR rating ([3]; 0.0313 kg/ha)?
The TRZAWR rating was 0.0.

What about the TRZAWR rating ([3]; 0.0625 kg/ha) of the same compound?
Its TRZAWR rating is 0.0.

And the TRZAWR rating ([3]; 0.1250 kg/ha)?
Its TRZAWR rating is 0.0.

And the TRZAWR rating ([3]; 0.2500 kg/ha)?
The TRZAWR rating was 2.0.

With `COC(=O)CCN1C(=O)CSC1=Nc1cc(-n2c(=O)cc(C(F)(F)F)n(C)c2=O)c(F)cc1Cl` [Compound 28, Methyl 2-{{2-chloro-5-[3,6-dihydro-3-methyl-2,6-dioxo-4-(trifluoromethyl)-1(2H)-pyrimidinyl]-4-fluorophenyl}imino}-4-oxo-3-thiazolidinepropionate] as the compound, how does the “Preemergence herbicidal rating ORYSAT” value (ORYSAT (Rice, Tebonnet); rate 0.0625 kg/ha) read?
The value was 0.0.

And the “Preemergence herbicidal rating ORYSAT” value (ORYSAT (Rice, Tebonnet); rate 0.1250 kg/ha)?
Its value is 2.0.

And the “Preemergence herbicidal rating ORYSAT” value (ORYSAT (Rice, Tebonnet); rate 0.2500 kg/ha)?
The value was 8.0.

What about the “Postemergence herbicidal rating CASOB” value (CASOB (Sicklepod); Rate 0.0158 kg/ha) of the same compound?
The value was 1.0.

What about the “Postemergence herbicidal rating CASOB” value (CASOB (Sicklepod); Rate 0.0315 kg/ha) of the same compound?
Its value is 1.0.

And the “Postemergence herbicidal rating CASOB” value (CASOB (Sicklepod); Rate 0.0630 kg/ha)?
Its value is 4.0.

And the “Herbicidal rating SAGPY” value ([1]; 0.0313 kg/ha)?
Its value is 0.0.

And the “Herbicidal rating SAGPY” value ([1]; 0.0625 kg/ha)?
The value was 0.0.

What about the “Herbicidal rating SAGPY” value ([1]; 0.1250 kg/ha) of the same compound?
The value was 0.0.

And the “Herbicidal rating SAGPY” value ([1]; 0.2500 kg/ha)?
Its value is 0.0.

And the “Herbicidal rating MOOVA” value (MOOVA (Monochoria); rate 0.0313 kg/ha, 3-4 weeks after treatment)?
The value was 9.0.

And the “Herbicidal rating MOOVA” value (MOOVA (Monochoria); rate 0.0625 kg/ha, 3-4 weeks after treatment)?
Its value is 9.0.

What about the “Herbicidal rating MOOVA” value (MOOVA (Monochoria); rate 0.1250 kg/ha, 3-4 weeks after treatment) of the same compound?
The value was 9.0.

And the “Herbicidal rating MOOVA” value (MOOVA (Monochoria); rate 0.2500 kg/ha, 3-4 weeks after treatment)?
Its value is 9.0.

What about the “Preemergence herbicidal rating GLXMAW” value ([2]; rate 0.0625 kg/ha) of the same compound?
Its value is 3.0.

And the “Preemergence herbicidal rating GLXMAW” value ([2]; rate 0.1250 kg/ha)?
Its value is 5.0.

What about the “Preemergence herbicidal rating GLXMAW” value ([2]; rate 0.2500 kg/ha) of the same compound?
The value was 9.0.

What about the “Preemergence herbicidal rating TRZAWR” value ([3]; rate 0.0625 kg/ha) of the same compound?
Its value is 0.0.

And the “Preemergence herbicidal rating TRZAWR” value ([3]; rate 0.2500 kg/ha)?
The value was 8.0.
